Reference: US10220064B2, “Carbohydrate composition extracted from Panax ginseng and its use in the treatment of ischemic conditions” (Macau University of Science and Technology, priority 2016, dated 2019)

Assays:
H/R-induced H9c2 cells = test: Impact of survival pathway inhibitors on AP1-induced cardio-protection (MVS assay); conditions: with 200 μg/mL AP1; mifepristone 100 μM, tamoxifen 100 μM, L-NAME 10 μM, LY294002 40 μM, Akt inhibitor IV 10 μM, U0126 40 μM (FIG. 11)
Procedure: H9c2 cells were pre-cultured in the presence or absence of survival pathway inhibitors, including mifepristone (MP, 100 μM), tamoxifen (TX, 100 μM), L-NAME (LM, 10 μmol/L), LY294002 (LY, 40 μM), Akt inhibitor IV (IV, 10 μM), U0126 (40 μM) with or without 200 μg/mL AP1 for 1 h, and then exposed further to H/R injury. The normal group (NOR) was always maintained in normoxic condition. Cell death was assessed by MVS assay. All measurements were repeated in six wells, the results are the average of three independent experiments. All values are expressed as mean±SD. ^^^P<0.001 vs. NOR, ***P<0.001 vs. H/R, ^##P<0.01 vs. AP1 under H/R, ^###P<0.001 vs. AP1 under H/R.
To examine the effectiveness of RSE and AP1 on H9c2 cells under hypoxia/reoxygenation conditions, the cells were cultured under normoxic conditions (95% air/5% CO2) overnight; then the cells were washed twice with Krebs-Ringer Bicarbonate buffer (composition in mM: NaCl 115, KCl 4.7, CaCl2 2.5, KH2PO4 1.2, MgSO4 1.2, NaHCO3 24, HEPES 10; pH 7.4) balanced with N2 at 4° C. for overnight. Aliquots (100 μL) of KRB supplemented with 0.01% (w/v) BSA were added to the cells immediately prior to hypoxia. To create a hypoxia condition, a hypoxic chamber (Stem Cell Technologies, USA) was used to produce an in vitro hypoxia challenge (Chiu, P. Y. et al., Molecular and cellular biochemistry 350, 237-250, 2011). In essence, the cells were placed in the sealed chamber and the chamber was flushed with pure N2 for 5 min at a flow rate of 20 mL/min, then, all sealable connectors were closed. After that, the chamber was transferred to an incubator and the cells in the chamber were subjected to 3 h incubation at 37° C. to induced hypoxia. Reoxygenation was initiated by opening the chamber and then replacing the KRB with fresh DMEM medium, the cells were then cultured in an incubator under normoxic conditions (95% air/5% CO2) at 37° C. for another 4 h.
The cells were seeded at the density of 8×10^4 cells/well in a 96-well plate. […] The control normal group was always maintained in normal DMEM and put in the incubator under normoxic atmosphere (95% air/5% CO2). For pharmaceutical blockages, the cells were treated with mifepristone (an inhibitor of GR, 100 μM), tamoxifen (an inhibitor of ER, 100 μM), L-NAME (an inhibitor of NOS, 10 μM), LY294002 (an inhibitor of PI3K, 40 μM), Akt inhibitor IV (an inhibitor of Akt protein kinase, 10 μM), U0126 (an inhibitor of Erk1/2, 40 μM) right before the pretreatment of AP1 (200 μg/mL).
The cell viability was evaluated by MVS assay (Sathishkumar, K. et al., Free Radicals and Antioxidant Protocols, 51-61, 2010). Briefly, at the end of the cell culture, the cells were overlaid with 100 μL of 2×mitochondrial viability stain in each well containing 100 μL of medium and then incubated under normoxic condition (95% air/5% CO2) for 4 h in the dark. The fluorescent intensity was measured at excitation 550 nm and emission 590 nm by a TECAN Infinite M200 micro plate reader (Tecan, Durham, USA).

H9c2 cells [1] = test: Cell morphology in the H/R model; assay type: cell-based, rat; conditions: 100 μM, pretreatment, H/R (FIG. 8E)
Description: FIG. 8A through 8E show the cell morphology of H9c2 cell pretreated with the carbohydrate composition AP1 in the H/R model. […] All photos (magnification power 200×) were taken after reoxygenation.
The medium was changed every two days, and the confluent cells were passaged by trypsinization weekly. The cells passaged for three to four times were used for experiments described as below.

H9c2 cells [2] = test: Flow cytometric analysis of cardiomyocyte apoptosis (Annexin V/PI); assay type: cell-based, rat; conditions: 100 μM, H/R, H/R group 46.0%
Description: The normal group (Normal) was always maintained in normoxic condition. The cells were then stained with Annexin V-FITC and PI for apoptosis analysis by flow cytometry. Cells in the lower-left quadrant (Q3), unstained for both Annexin V-FITC and PI, are defined as viable cells. Cells in the lower-right quadrant (Q4), stained for Annexin V-FITC but negative for PI, are defined as early-medium apoptotic cells. Cells in the upper-right quadrant (Q2), positive for both Annexin V-FITC and PI, are defined as late apoptotic and necrotic populations. […] The percentage of apoptotic cells measured using the Annexin-V/PI kit for flow cytometry as manufacturer's instruction. […] Cells were re-suspended in 1× binding buffer containing propidium iodide (PI) and FITC-labelled Annexin V and incubated for 15 min at 37° C. in the dark, and analyzed with flow cytometry (FACS Vantage-BD Sciences, USA). The data was analyzed using Flow J software for determining the percent of apoptotic cells.

[3] = tested on: NO in culture medium of H9c2 cells; test: Nitric oxide (NO) production, Griess reaction; assay type: cell-based, rat; conditions: L-NAME 10 μmol/L, H/R (FIG. 12)
Procedure: FIG. 12 illustrates the effect of carbohydrate composition AP1 on NO production. […] The normal group (Normal) was always maintained in normoxic condition. The changes of NO levels in culture medium of H9c2 cells following H/R injury were determined by Griess reagent.
The concentration of NO in the culture medium was determined by the Griess reaction with minor changes (Chen, X. P. et al., Journal of Neuroinflammation 9, 2012). At the end of the cell culture, 40 μL cell culture fluid, 10 μL NADPH, and 40 μL basal solution (0.03 M PBS; 1.25 mM glucose-6-phosphate; 400 U/L glucose-6-phosphate dehydrogenase; 200 U/L nitrate reeducates) was incubated in a 96 well microtiter plate for 45 min at room temperature. Next, 50 μL Griess reagent was added and the solution incubated for 20 min in the dark at room temperature. Finally, the absorbance of the samples was measured at 540 nm. Concentrations of NO in the sample were calibrated with a reference standard of sodium nitrite (NaNO2) supplied with the kit and the levels of NO were expressed as μM.

| Structure (SMILES) | effect of inhibitor on protective effects of AP1 on H/R-induced cell death (H/R-induced H9c2 cells) | other results |
| --- | --- | --- |
| CC[n+]1c(/C=C/N(C)c2ccccc2)n(-c2ccccc2)c2ccc(-c3nc4ccccc4s3)cc21.[I-] [Akt inhibitor IV] | abolished the protective effects of AP1 | – |
| CC1=NS(=O)(=O)c2cc(Cl)ccc2N1 [DZ, diazoxide] | – | protection in H/R induced cell death (H9c2 cells [1]): significant protection; apoptosis (apoptotic cell accumulation) (H9c2 cells [2]): 22.2±3.8% |
| COC(=O)[C@@H](N)CCCNC(=N)N[N+](=O)[O-] [L-NAME] | abolished the protective effects of AP1 | NO production [3]: significantly abolished |
| N#CC(=C(/N)Sc1ccccc1N)/C(C#N)=C(\N)Sc1ccccc1N [U0126] | abolished the protective effects of AP1 | – |
| CC#C[C@]1(O)CC[C@H]2[C@@H]3CCC4=CC(=O)CCC4=C3[C@@H](c3ccc(N(C)C)cc3)C[C@@]21C [mifepristone] | abolished the protective effects of AP1 | – |
| CC/C(=C(\c1ccccc1)c1ccc(OCCN(C)C)cc1)c1ccccc1 [tamoxifen] | abolished the protective effects of AP1 | – |
